Reference: ChEMBL document CHEMBL5338769, “Discovery of Norisoboldine Analogue III11 as a Novel and Potent Aryl Hydrocarbon Receptor Agonist for the Treatment of Ulcerative Colitis” (J Med Chem, 2023)
Active and inactive are the calls of the source. No cut-off for these calls is given here.

Key:
[1] = biological target: T1, Aryl hydrocarbon receptor (Mus musculus, UniProt P30561); assay: Activation of AhR transcription in C57BL/6 mouse naive T cells assessed as increase in CYP1A1 mRNA expression at 3 uM measured after 72 hrs by qRT-PCR analysis relative to control; format: cell-based; conditions: t cell
T1 sequence (P30561 whole entry): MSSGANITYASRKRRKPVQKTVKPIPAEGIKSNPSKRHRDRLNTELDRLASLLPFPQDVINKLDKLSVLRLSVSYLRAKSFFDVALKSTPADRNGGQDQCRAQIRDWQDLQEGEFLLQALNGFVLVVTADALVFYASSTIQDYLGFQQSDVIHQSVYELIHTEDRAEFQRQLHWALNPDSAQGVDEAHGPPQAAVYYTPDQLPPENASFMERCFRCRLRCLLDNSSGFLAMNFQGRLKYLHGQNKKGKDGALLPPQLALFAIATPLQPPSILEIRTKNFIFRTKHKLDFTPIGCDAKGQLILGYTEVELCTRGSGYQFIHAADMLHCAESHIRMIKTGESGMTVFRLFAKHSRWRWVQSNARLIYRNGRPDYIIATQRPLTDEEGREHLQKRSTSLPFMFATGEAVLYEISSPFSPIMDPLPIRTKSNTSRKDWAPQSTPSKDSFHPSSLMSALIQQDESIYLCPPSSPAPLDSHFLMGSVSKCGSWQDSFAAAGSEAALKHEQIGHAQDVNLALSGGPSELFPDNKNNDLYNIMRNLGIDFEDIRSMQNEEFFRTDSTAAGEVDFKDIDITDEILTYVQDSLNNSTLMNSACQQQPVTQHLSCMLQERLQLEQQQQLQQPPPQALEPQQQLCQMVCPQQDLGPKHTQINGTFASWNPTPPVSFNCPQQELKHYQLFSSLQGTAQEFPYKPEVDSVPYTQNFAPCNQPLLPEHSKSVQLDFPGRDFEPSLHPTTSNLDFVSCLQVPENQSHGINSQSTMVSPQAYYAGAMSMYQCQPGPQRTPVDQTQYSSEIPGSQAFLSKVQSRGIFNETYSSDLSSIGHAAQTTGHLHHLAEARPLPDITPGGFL

EL4 = assay: Cytotoxicity against mouse EL4 cells assessed as inhibition of cell proliferation incubated for 72 hrs by MTT assay; format: functional, cell-based; conditions: for IC50: EL4, 72 h
[2] = biological target: T1, Aryl hydrocarbon receptor; assay: Activation of AhR transcription in C57BL/6 mouse naive T cells assessed as increase in AhRR mRNA expression at 1 to 3 uM by qRT-PCR analysis; format: cell-based; conditions: t cell, dose 1-3 µM
[3] = biological target: T1, Aryl hydrocarbon receptor; assay: Activation of AhR transcription in C57BL/6 mouse naive T cells assessed as increase in CYP1B1 mRNA expression at 1 to 3 uM by qRT-PCR analysis; format: cell-based; conditions: t cell, dose 1-3 µM
[4] = biological target: T1, Aryl hydrocarbon receptor; assay: Activation of AhR transcription in C57BL/6 mouse naive T cells assessed as increase in UGT1A1 mRNA expression at 1 to 3 uM by qRT-PCR analysis; format: cell-based; conditions: t cell, dose 1-3 µM
[5] = biological target: T1, Aryl hydrocarbon receptor; assay: Activation of AhR transcription in C57BL/6 mouse naive T cells assessed as increase in CYP1A1 mRNA expression at 1 to 3 uM by qRT-PCR analysis; format: cell-based; conditions: t cell, dose 1-3 µM
[6] = biological target: T1, Aryl hydrocarbon receptor; assay: Activation of AhR transcription in C57BL/6 mouse naive T cells assessed as increase in CYP1A1 mRNA expression at 1 to 3 uM measured after 72 hrs by qRT-PCR analysis; format: cell-based; conditions: t cell, dose 1-3 µM
[7] = biological target: T1, Aryl hydrocarbon receptor; assay: Activation of AhR transcription in C57BL/6 mouse naive T cells assessed as increase in CYP1A1 mRNA expression at 1 uM by qRT-PCR analysis; format: cell-based; conditions: t cell

Row | Compound | IC50 (EL4) | Activity [2] | Activity [3] | Activity [4] | Activity [5] | further results
1 | COc1ccc2c(c1)CC1NCCc3cc(OC)c(OC)c-2c31 (stereo not given) | 10.8 µM | – | – | – | – | Activity [1]: 152.7%
2 | COc1cc2c3c(c1OC)-c1cc(O)ccc1CC3NCC2 (stereo not given) | 25.9 µM | Not Active | Not Active | Not Active | Not Active | –
3 | COc1cc2c(cc1O)CC1c3c(cc(O)c(OC)c3-2)CCN1C (stereo not given) | 70.1 µM | – | – | – | – | Activity [1]: 222%
4 | COc1cc2c3c(c1OC)-c1ccccc1CC3N(C)CC2 (stereo not drawn) [(+/-)-NUCIFERINE] | 35.9 µM | Not Active | Not Active | Not Active | Not Active | –
5 | O=Cc1cc(O)ccc1Br | – | – | – | – | – | Activity [6]: Not Active
6 | COc1cc2c(cc1O)CC1c3c(cc(OC)c(O)c3-2)CCN1C(=O)OC(C)(C)C (stereo not given) | 37 µM | – | – | – | – | Activity [7]: Active
7 | COc1cc2c(cc1O)-c1c(OC)c(OC)cc3c1C(C2)NCC3 (stereo not given) | 36.9 µM | Not Active | Not Active | Not Active | Not Active | –
8 | Oc1ccc2c(c1)CC1NCCc3cccc-2c31 (stereo not given) | – | – | – | – | – | Activity (EL4): inactive
9 | COc1cc2c(cc1O)CC1NCCc3cc(OC)c(OC)c-2c31 (stereo not given) | 48.4 µM | – | – | – | – | Activity [7]: Active
10 | COc1cc2c(cc1OC)-c1c(OC)c(OC)cc3c1C(C2)NCC3 (stereo not given) | 13.9 µM | Not Active | Not Active | Not Active | Not Active | –
